pIC50: −log10 of the molar value.
Key:
Type in all cases: functional, cell-based
MCF7 [1] = experiment: Cytotoxicity against human MCF7 cells assessed as inhibition of cell growth incubated for 72 hrs by MTT assay; details: MCF7, 72 h
SW480 = experiment: Cytotoxicity against human SW480 cells assessed as inhibition of cell growth incubated for 24 hrs by MTT assay; details: SW480, 24 h
HeLa S3 = experiment: Cytotoxicity against human HeLa S3 cells assessed as inhibition of cell growth incubated for 72 hrs by MTT assay; details: HeLa S3, 72 h
MCF7 [2] = experiment: Cytotoxicity against human MCF7 cells assessed as inhibition of cell growth incubated for 24 hrs by MTT assay; details: MCF7, 24 h
HL-60 = experiment: Cytotoxicity against human HL-60 cells assessed as inhibition of cell growth incubated for 24 hrs by MTT assay; details: HL-60, 24 h

SMILES | pIC50 (MCF7 [1]) | pIC50 (SW480) | pIC50 (HeLa S3) | pIC50 (MCF7 [2]) | pIC50 (HL-60)
CC[C@H](C)[C@@H]1NC(=O)[C@@H]2[C@@H](C)CCN2C(=O)[C@@H](C[C@@H](O)CCl)OC(=O)CCNC(=O)[C@H](C)N(C)C(=O)[C@H]([C@@H](C)CC)N(C)C1=O | 5.55 | 6.97 | 6.40 | 7.10 | 6.83
CO[C@@]12[C@H](COC(N)=O)C3=C(C(=O)C(C)=C(N)C3=O)N1C[C@@H]1N[C@@H]12 [MITOMYCIN] | 5.74 | – | 6.28 | – | –
CC[C@H](C)[C@@H]1NC(=O)[C@@H]2[C@@H](C)CCN2C(=O)[C@@H](C[C@H](O)CO)OC(=O)CCNC(=O)[C@H](C)N(C)C(=O)[C@H]([C@@H](C)CC)N(C)C1=O | < 5.00 | – | < 5.00 | – | –
CC[C@H](C)[C@@H]1NC(=O)[C@@H]2[C@@H](C)CCN2C(=O)[C@@H](C[C@H](O)CCl)OC(=O)CCNC(=O)[C@H](C)N(C)C(=O)[C@H]([C@@H](C)CC)N(C)C1=O | 6.47 | – | 7.51 | – | –
